Results on 27 compounds are retold here after ChEMBL document CHEMBL4680295, “Structure guided development of potent piperazine-derived hydroxamic acid inhibitors targeting falcilysin” (Bioorg Med Chem Lett, 2021).

Experiment [1] deals with T1, Falcilysin (Plasmodium falciparum (isolate 3D7), UniProt Q76NL8).
T1 sequence (Q76NL8 whole entry): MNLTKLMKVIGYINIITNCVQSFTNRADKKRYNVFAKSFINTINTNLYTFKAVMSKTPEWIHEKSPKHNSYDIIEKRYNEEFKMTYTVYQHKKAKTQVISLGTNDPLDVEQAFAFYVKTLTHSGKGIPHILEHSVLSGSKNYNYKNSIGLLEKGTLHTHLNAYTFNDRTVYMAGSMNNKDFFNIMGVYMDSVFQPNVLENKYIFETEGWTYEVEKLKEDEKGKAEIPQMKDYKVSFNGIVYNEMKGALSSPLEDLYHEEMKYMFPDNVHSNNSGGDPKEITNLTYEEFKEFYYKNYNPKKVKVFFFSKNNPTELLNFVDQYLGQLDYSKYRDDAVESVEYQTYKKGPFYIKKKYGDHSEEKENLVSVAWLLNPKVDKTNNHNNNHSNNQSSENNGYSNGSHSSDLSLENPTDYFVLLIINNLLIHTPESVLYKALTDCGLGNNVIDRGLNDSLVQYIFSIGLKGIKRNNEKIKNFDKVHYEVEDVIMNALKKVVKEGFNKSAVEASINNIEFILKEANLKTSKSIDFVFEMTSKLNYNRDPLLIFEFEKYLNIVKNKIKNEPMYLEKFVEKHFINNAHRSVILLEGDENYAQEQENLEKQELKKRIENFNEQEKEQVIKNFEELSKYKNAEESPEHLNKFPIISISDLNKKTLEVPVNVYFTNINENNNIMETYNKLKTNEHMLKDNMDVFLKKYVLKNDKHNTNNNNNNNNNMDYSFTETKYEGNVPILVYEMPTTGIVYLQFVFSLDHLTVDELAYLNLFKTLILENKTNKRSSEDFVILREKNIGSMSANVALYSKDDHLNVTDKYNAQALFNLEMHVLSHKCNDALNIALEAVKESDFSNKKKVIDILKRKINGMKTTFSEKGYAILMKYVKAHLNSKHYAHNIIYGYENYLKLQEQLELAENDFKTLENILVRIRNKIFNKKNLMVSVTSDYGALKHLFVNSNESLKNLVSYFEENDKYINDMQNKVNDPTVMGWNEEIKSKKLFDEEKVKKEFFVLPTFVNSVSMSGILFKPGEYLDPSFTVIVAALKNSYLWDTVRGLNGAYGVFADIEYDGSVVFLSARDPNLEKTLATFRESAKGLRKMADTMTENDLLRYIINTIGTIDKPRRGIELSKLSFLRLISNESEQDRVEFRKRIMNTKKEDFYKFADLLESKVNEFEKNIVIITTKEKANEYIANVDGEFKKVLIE
Description: Inhibition of Plasmodium falciparum FLN.

The test system of experiment [2] is Plasmodium falciparum. The experiment is described as follows: Parasiticidal activity against Plasmodium falciparum 3D7. In kind it is functional, organism-based.

For orientation: Ki means a measure of affinity in units of concentration, obtained from inhibition or displacement. The low end stands for tighter binding, the high end for weaker binding. By EC50 is commonly meant the concentration needed to bring the measured effect to its halfway point. Read a high EC50 as a need for much substance. On to `O=C(NO)C1CN(C(=O)c2ccc(I)cc2)CCN1S(=O)(=O)c1ccc(Br)cc1` (centres undefined), for which the inhibitory constant (Ki) in experiment [1] was greater than 25 µM. Besides, the EC50 in experiment [2] was greater than 25 µM.

In turn, `O=C(NO)C1CN(C(=O)c2ccc3ccccc3c2)CCN1S(=O)(=O)c1ccc(Br)cc1` (centres undefined) came in with a Ki in experiment [1] of 3.5 µM. In experiment [2], this compound came in with a concentration for a half-maximal effect (EC50) of 7 µM.

For the compound `COC(=O)C1CN(S(=O)(=O)c2ccc(-c3ccccc3)cc2)CCN1S(=O)(=O)c1ccc(-c2ccccc2)cc1` (centres undefined), in experiment [1], the Ki is 2.5 µM. Further, in experiment [2], the EC50 turned out to be 2.1 µM.

`O=C(NO)C1CN(Cc2ccc(-c3ccccc3)cc2)CCN1S(=O)(=O)c1ccc(I)cc1` (centres undefined) came in with a Ki in experiment [1] of 4.9 µM. Further, in experiment [2], the EC50 is 5 µM.

Compound `O=C(NO)C1CN(Cc2ccc(-c3ccccc3)cc2)CCN1S(=O)(=O)c1ccc(Br)cc1` (centres undefined) showed an inhibitory constant (Ki) in experiment [1] of 5 µM. For the same compound, in experiment [2], the EC50 worked out at 10 µM.

In the case of `C#Cc1ccc(S(=O)(=O)N2CCNCC2C(=O)NO)cc1` (centres undefined), in experiment [1], the Ki is greater than 25 µM. Moreover, the half-maximal effective concentration (EC50) in experiment [2] was greater than 25 µM.

`CNC(=O)C1CN(S(=O)(=O)c2cccc(Br)c2)CCN1S(=O)(=O)c1ccc(-c2ccccc2)cc1` (centres undefined) had a Ki in experiment [1] of 1.4 µM. The compound further gave an EC50 in experiment [2] of 4.7 µM.

As to `C#Cc1ccc(S(=O)(=O)N2CCN(C(=O)c3ccc(C(=O)c4ccccc4)cc3)CC2C(=O)NO)cc1` (centres undefined), the inhibition constant (Ki) in experiment [1] was greater than 25 µM. In experiment [2], this compound displayed an EC50 of 6 µM.

The compound `O=C(NO)C1CN(C(=O)c2cccc3ccccc23)CCN1S(=O)(=O)c1ccc(Br)cc1` (centres undefined) gave a Ki in experiment [1] of 9 µM. This compound gave an EC50 in experiment [2] of 4 µM.

The compound `CNC(=O)C1CN(S(=O)(=O)c2ccc(I)cc2)CCN1S(=O)(=O)c1ccc(-c2ccccc2)cc1` (centres undefined) returned a Ki in experiment [1] of 2.6 µM. The compound also showed a half-maximal effective concentration (EC50) in experiment [2] of 9 µM.

As for `O=C(NO)C1CN(C(=O)c2ccc(-c3ccccc3)cc2)CCN1S(=O)(=O)c1ccc(Br)cc1` (centres undefined), the Ki in experiment [1] was found to be 3 µM. The EC50 in experiment [2] was 2.6 µM.

In experiment [1], `COC(=O)C1CN(Cc2ccc(-c3ccccc3)cc2)CCN1S(=O)(=O)c1ccc(Br)cc1` (centres undefined) came in with an inhibition constant (Ki) of 4 µM. Further, in experiment [2], the EC50 came out at 1.4 µM.

Turning to `COC(=O)C1CN(S(=O)(=O)c2ccc(-c3ccccc3)cc2)CCN1S(=O)(=O)c1ccc(/C=C/c2ccccc2)cc1` (centres undefined), the inhibitory constant (Ki) in experiment [1] is 0.6 µM. The compound further registered an EC50 in experiment [2] of 0.8 µM.

For the compound `O=C(NO)C1CN(S(=O)(=O)c2ccc(-c3ccccc3)cc2)CCN1S(=O)(=O)c1ccc(-c2ccccc2)cc1` (centres undefined), affinity in experiment [1] was put at a Ki of 0.22 µM. For the same compound, in experiment [2], a half-maximal response (EC50) required 7 µM.

The compound `CNC(=O)C1CN(S(=O)(=O)c2ccc(-c3ccccc3)cc2)CCN1S(=O)(=O)c1cccc(CCc2ccccc2)c1` (centres undefined) showed a Ki in experiment [1] of 2.5 µM. The compound also showed a concentration for a half-maximal effect (EC50) in experiment [2] of 2.1 µM.

`O=C(NO)C1CN(S(=O)(=O)c2ccc(-c3ccccc3)cc2)CCN1S(=O)(=O)c1cccc(-c2ccccc2)c1` (centres undefined) had an inhibitory constant (Ki) in experiment [1] of 0.9 µM. The compound further displayed a concentration giving a half-maximal response (EC50) in experiment [2] of 7 µM.

As to `C#Cc1ccc(S(=O)(=O)N2CCN(C(=O)c3ccc(I)cc3)CC2C(=O)NO)cc1` (centres undefined), in experiment [1], the Ki was greater than 25 µM. Besides, in experiment [2], the half-maximal effective concentration (EC50) was greater than 25 µM.

For `CNC(=O)C1CN(S(=O)(=O)c2ccc(-c3ccccc3)cc2)CCN1S(=O)(=O)c1cccc(-c2ccc(C(=O)c3ccccc3)cc2)c1` (centres undefined), the Ki in experiment [1] is 1.7 µM. The compound further gave a 50% effective concentration (EC50) in experiment [2] of 0.9 µM.

Turning to `O=C(NO)C1CN(S(=O)(=O)c2ccc(Cc3ccccc3)cc2)CCN1S(=O)(=O)c1ccc(Br)cc1` (centres undefined), in experiment [1], the Ki is greater than 25 µM. The compound also gave an EC50 in experiment [2] greater than 25 µM.

Compound `O=C(NO)C1CN(S(=O)(=O)c2ccc(-c3ccccc3)cc2)CCN1S(=O)(=O)c1cccc(Br)c1` (centres undefined) came in with a Ki in experiment [1] of 1.4 µM. The compound further showed a concentration for a half-maximal effect (EC50) in experiment [2] of 1.6 µM.

Take `O=C(NO)C1CN(C(=O)c2ccc(-c3ccccc3)cc2)CCN1S(=O)(=O)c1ccc(-c2ccsc2)cc1` (centres undefined): the Ki in experiment [1] stood at 11 µM. This compound had an EC50 in experiment [2] of 6 µM.

Regarding `O=C(NO)C1CN(C(=O)c2ccc(-c3ccccc3)cc2)CCN1S(=O)(=O)c1ccc(I)cc1` (centres undefined), the Ki in experiment [1] is 4 µM. The compound also registered an EC50 in experiment [2] of 3 µM.

With `CNC(=O)C1CN(S(=O)(=O)c2ccc(-c3ccccc3)cc2)CCN1S(=O)(=O)c1cccc(/C=C/c2ccccc2)c1` (centres undefined), in experiment [1], the Ki is 1 µM. Also, in experiment [2], the half-maximal effective concentration (EC50) came out at 5 µM.

For the compound `CNC(=O)C1CN(S(=O)(=O)c2ccc(-c3cccnc3OC)cc2)CCN1S(=O)(=O)c1ccc(-c2ccccc2)cc1` (centres undefined), the Ki in experiment [1] was 4 µM. Besides, the concentration for a half-maximal effect (EC50) in experiment [2] was determined as 1.4 µM.

The compound `O=C(NO)C1CN(S(=O)(=O)c2ccc(/C=C/c3ccccc3)cc2)CCN1S(=O)(=O)c1ccc(-c2ccccc2)cc1` (centres undefined) showed a Ki in experiment [1] of 1.1 µM. Further, in experiment [2], the EC50 was found to be 16 µM.

In experiment [1], `CNC(=O)C1CN(S(=O)(=O)c2ccc(-c3ccccc3)cc2)CCN1S(=O)(=O)c1cccc(-c2cccnc2OC)c1` (centres undefined) returned a Ki of 4 µM. In experiment [2], this compound returned an EC50 of 6 µM.

The compound `O=C(NO)C1CN(C(=O)c2ccc(-c3ccccc3)cc2)CCN1S(=O)(=O)c1ccc(-c2ccccc2)cc1` (centres undefined) returned a Ki in experiment [1] of 10 µM. This compound yielded an EC50 in experiment [2] greater than 25 µM.
